This note sets out measurements from patent US20260250640A1, “NOVEL COMPOSITIONS AND THEIR USE TO INCREASE MOTILITY, VIABILITY AND LIFESPAN OF SPERM CELLS AND FERTILITY” (IMV TECHNOLOGIES, priority 2023, published 2026).

For this data set, the system named is bull semen. How it is done:
• a 2.4 mM BaCl2 solution in OptiXcell was prepared, • 1 mL of this solution was resuspended in a 5 mg vial of DMNP-EDTA, • 1.5 mL of DMNP-EDTA were added for a final DMNP-EDTA concentration of 2.6 mM, • The solution was kept away from light, • The solution was contacted with semen in different chelator/semen ratios: • 1:1=>500 μL chelators+500 μL bull semen at 57 Mspz/mL • 1:0.75=>500 μL chelators+375 μL bull semen at 57 Mspz/mL • 1:0.5=>500 μL chelators+250 μL bull semen at 57 Mspz/mL • 1:0.25=>500 μL chelators+125 μL bull semen at 57 Mspz/mL • A BaCl2 solution only: 500 μL BaCl2 at 2.4 mM+500 μL bull semen at 57 Mspz/mL was prepared • The following analyses have been performed on frozen bull semen: • Mobility analysis on IVOS II™ at T=0 and T3H 37° C., • Acrosome integrity analysis on EasyCyte at T=0 and T3H 37° C., • Viability analysis on EasyCyte at T=0 and T3H 37° C. • Mitochondrial activity analysis on EasyCyte at T=0 and T3H 37° C.
The control corresponds to OptiXcell alone.

As to `[Ba+2].[Cl-].[Cl-]` [BaCl2], the sperm viability result (T=3H 37° C.) is “remained unchanged”.

On to `COc1cc(C(CN(CC(=O)O)CC(=O)O)N(CC(=O)O)CC(=O)O)c([N+](=O)[O-])cc1OC` (stereo not drawn) [chelator, DMNP-EDTA], for which the impact on viability result was “No major impact” and the “sperm viability, difference vs. Control” value is “+13 pts”. Moreover, under “T0 and T3H 37° C., conclusion”, the impact on mobility result is “No major impact”. For the same compound, under “T=3H 37° C., 1/1 chelator/semen”, the “sperm motility, difference vs control (OptiXcell alone)” value was “+9 pts”. For the setting “presence of chelator (BaCl2/DMNP-EDTA solution in OptiXcell), T=0 and T3H 37° C.”, the sperm motility result is “not affected”.
